Data on 2 molecules can be found in article PMC9653339, “Revisiting the anticancer properties of phosphane(9-ribosylpurine-6-thiolato)gold(I) complexes and their 9H-purine precursors” (Journal of Biological Inorganic Chemistry, 2022).

The test system of data set [1] is 518A2 melanoma cells. The experiment in a line: ROS assay (NBT). Type of data set: cell-based, human. As to conditions: 518A2 cells, 1 µM and 5 µM, 24 h. The procedure: To determine cellular ROS levels, 2,2′-bis(4-nitrophenyl)-5,5′-diphenyl-3,3′-(3,3′-dimethoxy-4,4′-diphenylene) di-tetrazolium chloride (NBT) was used. The assay is based on the reduction of a yellow NBT tetrazolium salt to a blue formazan dye. 518A2 melanoma cells were seeded in 96-well flat bottom microtiter plates (Sarstedt) with 100 µL per well and a cell density of 0.1 × 10^6 cells per mL. The cells were allowed to grow overnight, followed by substance treatment with 11.1 µL of tenfold concentrated test compound dilutions and further incubated for 24 h. Then plates were centrifuged, the medium was discarded and 50 µL per well of NBT solution (0.1% in PBS) was added. The plates were further incubated for 4 h, centrifuged again and the medium was discarded. After that, 50 µL of 2M KOH solution and 65 µL DMSO had been added per well, incubation was continued for 30 min. The absorbances at 630 nm und 405 nm were measured, using a plate reader (Tecan). The background absorbance (405 nm) was subtracted from the formazan signal (630 nm). The resulting absorbance is directly proportional to the reactive oxygen species level. The control value was normalized to 100% ROS level, and accordingly, the viability of cells treated with test compounds was calculated. Means and SD were calculated from at least four independent experiments.

In data set [2] the test system is HCT-116^wt colon carcinoma cells. Details: method as in Bär et al. [33]. As to conditions: MTT, value marked * ref Bär et al. [33]; cited from earlier work.
For data set [3], the system named is HCT-116^p53−/− (p53 knockout mutant) colon carcinoma cells. The arrangement: method as in Bär et al. [33]. The conditions noted are these: MTT, value marked * ref Bär et al. [33]; cited from earlier work.
Data set [4] relates to HeLa cervix carcinoma cells. The arrangement: method as in Bär et al. [33]. The conditions noted are these: MTT, value marked * ref Bär et al. [33]; cited from earlier work.
The test system of data set [5] is 518A2 melanoma cells. Details: method as in Bär et al. [33]. As to conditions: MTT, value marked * ref Bär et al. [33]; cited from earlier work.
Data set [6] deals with circular plasmid pBR322 DNA. The data set can be described thus: Electrophoretic mobility shift assay (EMSA). It counts as binding. As to the method:
To distinguish whether the DNA interaction is of an electrostatic or covalent nature, a second DNA interaction assay was conducted. 1.5 µg of circular plasmid pBR322 DNA were incubated in TE buffer (10 mM Tris–Cl, 1 mM EDTA, pH 8.0) with different concentrations of test compounds (final concentrations; 5 µM, 10 µM, 25 µM and 50 µM), whereas a corresponding volume of DMSO was added to the control (0 µM) to a final volume of 20 µL of each sample. Samples ware incubated for 16 h at 37 °C and subjected to 1% agarose gel electrophoresis in 0.5 × TBE buffer (45 mM Tris–Cl, 45 mM boric acid, 1.25 mM EDTA, pH 8.0) for 4 h at 66 V. Afterward, the agarose gel was stained for 20 min with EtdBr (10 µg/mL in 0.5 TBE buffer) solution and the result documented using UV excitation.

A further data set has as its system linear salmon sperm DNA. The experiment in a line: Ethidium bromide saturation assay. It counts as binding. As to the method:
The interaction of the complexes with linear DNA was assessed using the EtdBr assay. Ethidium bromide intercalates into DNA enhancing its fluorescence, while intercalation is hindered by alterations of the DNA structure e.g., by small molecules interfering with DNA [17]. In wells of a 96-well black flat bottom microtiter plates a solution of 1 µg linear salmon sperm DNA (ThermoFisher) in TE buffer (10 mM Tris–Cl, 1 mM EDTA, pH 8.0) was treated with concentration series (final concentrations; 25 µM, 50 µM, 75 µM and 100 µM) of the compounds, a corresponding amount of DMSO was used as a control (0 µM). After an incubation period of 2 h at 37 °C, 100 µL per well of ethidium bromide solution (10 µg/mL in TE buffer) was added and the plate was incubated for 5 min in the dark. Background samples were prepared analogously but without DNA addition. EtdBr–DNA adduct fluorescence was monitored at an excitation wavelength of 535 nm and an emission wavelength of 595 nm. After background subtraction, changes in fluorescence intensity were calculated in relation to control (set to 100%). Means and SD were calculated from at least three independent experiments.

Data set [7] relates to 518A2 melanoma cells. The experiment in a line: Comet assay. Type of data set: cell-based, human. As to conditions: 518A2 cells, 3.3 µM and 33 µM. As to the method: 518A2 melanoma cells were seeded at a concentration of 0.03 × 10^6 cells/mL and a volume of 2 mL seeded in 6-well plates and incubated overnight (37 °C, 95% humidity, 5% CO2). In addition, slides were coated with 1.5% agarose and allowed to harden before being stored in a moist place until the next day. On the second day, a 100-fold substance pre-dilution was added to the cells followed by a further incubation of 3–5 h. The selected concentration range was based on Mendonça et al.. Subsequently, the cells were harvested with trypsin and the cell number was adjusted to 0.02 × 10^6 cells/mL. 0.5% agarose solution was prepared and tempered to a maximum of 50 °C. After mixing 0.4 mL of cell suspension with 1.2 mL of tempered agarose, 200 µL was pipetted onto each of the previously coated slides. After these had hardened, a one-hour incubation followed at 4 °C in lysis buffer. The samples were then electrophoresed at 11 V for 20 min and then incubated for 15 min in neutralization buffer. Finally, the DNA was stained with 30 µL each of 1% ethidium bromide for 30 min, before the slides were washed with PBS for subsequent documentation under a fluorescent microscope with UV excitation (Zeiss Axiovert 135, Ex/Em 300 nm/605 nm).

The nature of data set [8]: Stability in cell culture medium by UV/Vis spectroscopy. As to conditions: 0–30 min and 3 days. Type of data set: physicochemical. From the text: In a further corroboration of the complex stability, the similarity of the chalcogens sulfur and selenium was exploited. The selenolato complex 10 was synthesized and examined for its stability under identical conditions. Since ^77Se is a 1/2 spin nucleus with roughly 8% natural abundance, its compounds can be investigated directly. Depending on whether a break in the Se–Au or the Au–PR3 bond would occur, the shift would change by several hundred ppm and serve as unequivocal evidence. […] In addition, we investigated the stability of complexes 1 and 5 as representatives of the series of purines and purine nucleosides, respectively, in cell culture medium by UV/Vis spectroscopy.

The term IC50 denotes the concentration that inhibits the measured activity by half. As to `CC(=O)OC[C@H]1O[C@@H]([S-])[C@H](OC(C)=O)[C@@H](OC(C)=O)[C@@H]1OC(C)=O.CCP(CC)CC.[Au+]` [Auranofin, auranofin], the “Intracellular ROS level” value with 518A2 melanoma cells [1] is “highest ROS levels”. Moreover, the IC50 is 11.9 ± 0.4 µM in data set [2], 5 ± 0.2 µM in data set [3], 2.6 ± 0.4 µM in data set [4] and 1.8 ± 0.03 µM in the data set on 518A2 melanoma cells [5].

As for `OC[C@H]1O[C@@H](n2cnc3c([S][Au][PH](c4ccccc4)(c4ccccc4)c4ccccc4)ncnc32)[C@H](O)[C@@H]1O` [Complex 5, (1,7-Dihydro-6H-purine-9-β-D-ribofuranosyl-6-thiolato) (triphenylphosphane) gold(I)], the “DNA interaction (EMSA)” value in [6] is recorded as “failed to reveal any positive effects”. Besides, the “DNA interaction (ethidium bromide saturation)” value in the data set on linear salmon sperm DNA is “failed to reveal any positive effects”. For the same molecule, in the data set with 518A2 melanoma cells [7], the “DNA damage (comet assay)” value is on record as “led to DNA damage”. Also, the “Stability in cell culture medium (UV/Vis)” value in data set [8] is listed as “stable under the test conditions”.
